Test results published in patent US20230277483A1, “COMPOSITIONS AND METHODS TO TREAT INFLAMMATION” (University of Iowa Research Foundation, priority 2022, published 2023).

Tests used:
3T3-L1 = assay: TNF-induced inflammation in differentiated white adipocytes; type: cell-based, mouse; details: 10 ng/ml TNF with 0.1 uM HCA, 24 hr
Procedure: 3T3-L1 (CL-173-ATCC, PMID. 26451286) were grown in DMEM containing 10% fetal bovine serum (FBS) and 1% pen/strep. Cells were induced to differentiate 2 d after reaching confluence by supplementing growth media with 3 nM insulin (Humulin R, Lily, Humulin R U-500, 0002-8501-01), 0.25 nM dexamethasone (Sigma, D4902), 2 uM rosiglitazone (Sigma, R2408) and 0.5 mM 1-methyl-3-isobutyl-xanthine (Sigma, I5879). From day 3 until day 7, cells were maintained in growth media supplemented with 3 nM insulin after which the mature adipocytes were maintained in growth media. Cells were then incubated for 24 hr in the presence or absence of 10 ng/ml TNF (PeproTech, 315-01A) with or without 0.1 uM 6-Hydroxycaproic acid (HCA, Sigma, 515302).
To determine the effects of HCA on adipose-mediated inflammation, 3T3-L1 cells were differentiated into white adipocytes and then exposed to the pro-inflammatory cytokine tumor necrosis factor alpha (TNFa).

S. mitis (Sm, ATCC49456) = assay: Bacterial proliferation (growth profile); type: cell-based, Streptococcus mitis; details: HCA at 0.1 μM; aerobic culture
Procedure: (§1) Sg metabolites promote commensal bacterial proliferation and inhibit periodontopathogenic bacterial proliferation and colonization. Commensal bacteria, Sg, S. sanguinis (Ss, ATCC10556), S. mitis (Sm, ATCC49456) and S. oralis (So, ATCC 35037) were cultured in BHI medium. In addition, pathogenic bacteria, Pg was cultured using BHI and Tf (ATCC43037), and Td (ATCC 35405) were grown in Thioglycollate medium with vitamin K and Hemin in 90% N2, 5% H2, 5% CO2. The Sg metabolites were diluted using DMEM and added to the bacteria with the similar OD600 value. The same amount of DMEM was used as a control. During the exponential growth of bacteria, the OD600 value was measured to determine the proliferation. […] In addition, to determine the function of Sg metabolites on Pg colonization, Pg were inoculated in 24-well plates containing BHI or BHI supplemented with DMEM or Sg metabolites. […]
(§2) HCA promotes proliferation of health related bacteria and inhibits proliferation and attachment of periodontopathogenic bacteria. […] The composition of the microbiomes was determined by amplifying the V3 and V4 regions of the 16S rRNA genes. Raw data in FASTQ format were filtered and denoised using DADA2 (Divisive Amplicon Denoising Algorithm) to generate amplicon sequence variants (ASV) or operational taxonomical units (OTUs) that were then analyzed by QIIME2.

C57BL/6J mice = assay: Pg-LPS gingival injection mouse model of periodontal inflammation; type: in vivo; details: 100 μl of HCA at 0.5 μM I.P. three times a week, 3 weeks
Pg (ATCC 49417) = assay: Pg proliferation measured by OD600 under HCA; type: cell-based, Porphyromonas gingivalis; details: HCA at 0.1 and 10 μM; after 48 and 72 hrs vs untreated controls
Procedure: Pg (ATCC 49417), a key pathogen of periodontitis, was cultured at 24 well-plates with BHI medium at 90% N2, 5% H2, 5% CO2. HCA at 0.1 and 10 μM was applied.

[1] = test system: human monocyte-derived macrophages (MDM); assay: MTT toxicity assay; type: cell-based; details: HCA from 0.1 to 50 μM; 24 and 48 hours
Procedure: (§3) HCA promotes proliferation of health related bacteria and inhibits proliferation and attachment of periodontopathogenic bacteria. Promoting the growth of health-related commensal bacteria while inhibiting proliferation and attachment of pathogenic bacteria may be effective at preventing or treating periodontal inflammation. To determine if HCA has an effect on the growth properties of commensal bacteria and periodontopathogens, HCA at different concentrations was added to aerobic culture of S. mitis and S. oralis and anaerobic culture of T. denticola as described in our published manuscript (see detail in Shu et al, Journal of Periodontology, 2022). FIGS. 18A-C summarize the functions of HCA on the proliferation of specific commensal and pathogenic bacteria. […] Furthermore, the function of HCA on P. gingivalis attachment, a key parameter of adhesion and biofilm formation by periodontopathogenic bacteria, was investigated. […] The composition of the microbiomes was determined by amplifying the V3 and V4 regions of the 16S rRNA genes. Raw data in FASTQ format were filtered and denoised using DADA2 (Divisive Amplicon Denoising Algorithm) to generate amplicon sequence variants (ASV) or operational taxonomical units (OTUs) that were then analyzed by QIIME2.

Pg = Pg attachment (early biofilm formation, colonization) on culture plates; type: cell-based, Porphyromonas gingivalis
Procedure: as §1, §2

[2] = test system: S. oralis (So, ATCC 35037); assay: Bacterial proliferation measured by OD600; type: cell-based, Streptococcus oralis; details: HCA at 0.1 μM; aerobic culture
Procedure: as §1, §2

[3] = test system: oral and fecal microbiomes of obese mice; assay: Oral and fecal microbiome composition (16S rRNA) in DIO mice; type: in vivo, mouse; details: 100 μl of HCA at 0.2 and 0.5 μM I.P. three times a week for 3 weeks
Procedure: as §3

HGF = assay: Anti-inflammatory miR expression after Pg-LPS challenge; type: cell-based, human; details: 24 hours after Pg-LPS challenge
Procedure: FIGS. 11A-11B. Sg metabolites upregulate anti-inflammatory miRs in human macrophages and HGF. A-B: Relative transcript changes of miR-200c, 146a, and 21 in HGF (A) and human MDM (B) treated with AICAR, MA, HCA, and HPLA 24 hours after Pg-LPS challenge; performed in duplicate.

Q: With `O=C(O)CCCCCO` [HCA, 6-hydroxycaproic acid] as the molecule, how does the “TNF-induced IL-6 secretion” value (3T3-L1) read?
A: significantly reduced

Q: What about the “proliferation of S. mitis” value (S. mitis (Sm, ATCC49456)) of the same molecule?
A: improve proliferation

Q: What about the “serum IL-1β production (ELISA)” value (C57BL/6J mice) of the same molecule?
A: significantly reduced

Q: And the “gingival IL-1β expression (qRT-PCR)” value (C57BL/6J mice; Pg-LPS twice a week)?
A: suppressing gingival IL-1β expression

Q: And the “OD600 value of Pg” value (Pg (ATCC 49417))?
A: significantly reduced

Q: What about the “toxicity (MTT assay)” value [1] of the same molecule?
A: No toxicity

Q: What about the “attachment of P. gingivalis” value (Pg; HCA at 0.01 μM) of the same molecule?
A: less of an effect

Q: And the “attachment of P. gingivalis” value (Pg; HCA at 0.05 μM vs untreated control, optical density)?
A: significantly reduced

Q: And the “proliferation of S. oralis” value [2]?
A: improve proliferation

Q: And the “effect on composition of the microbiomes” value [3]?
A: dose dependent

Q: What about the “representation of Streptococcus danieliae and other unclassified streptococci in the oral microbiome” value [3] of the same molecule?
A: large increases

Q: And the “anti-inflammatory miRs (miR-200c, 146a, and 21)” value (HGF)?
A: upregulate
